Results from a polymer gas permeability compilation.

| Structure (SMILES) | CH4 permeability [Barrer] | CO2 permeability [Barrer] | H2 permeability [Barrer] | N2 permeability [Barrer] | O2 permeability [Barrer] |
| --- | --- | --- | --- | --- | --- |
| *C(=C(*)c1ccc2c(c1)C(C)(C)c1ccccc1-2)c1cccc(F)c1 (repeat unit) | 11000 | 18000 | 9900 | 4200 | 5900 |
| *C(=C(*)c1ccc2c(c1)C(C)(C)c1ccccc1-2)c1ccccc1 (repeat unit) | 9100 | 17000 | 8100 | 3300 | 4800 |
| *C(=C(*)c1ccc2c(c1)CCC2)c1ccc([Si](C)(C)C)cc1 (repeat unit) | 470 | 2000 | 1100 | 170 | 450 |
| *C(=C(*)c1ccc2c(c1)CCC2)c1ccccc1 (repeat unit) | 60 | 390 | 360 | 30 | 86 |
| *C(=C(*)c1ccc2c(c1)Cc1ccccc1-2)c1ccc([Si](C)(C)C)cc1 (repeat unit) | 2000 | 6450 | 3100 | 950 | 1650 |
| *C(=C(*)c1ccc2c(c1)Cc1ccccc1-2)c1ccccc1 (repeat unit) | 2400 | 8500 | 3650 | 1300 | 2150 |
| *c1ccc(N(c2ccccc2)c2ccc(N3C(=O)c4ccc(C(c5ccc6c(c5)C(=O)N(*)C6=O)(C(F)(F)F)C(F)(F)F)cc4C3=O)cc2)cc1 (repeat unit) | 0.08 | 4.73 |  | 0.08 | 0.69 |
| *c1ccc(N2C(=O)c3ccc(C(c4ccc5c(c4)C(=O)N(*)C5=O)(C(F)(F)F)C(F)(F)F)cc3C2=O)cc1 (repeat unit) | 1.31 | 62 | 107 | 2.57 | 12.7 |
| *c1ccc(Oc2ccc(-n3c(=O)c4cc5c(=O)n(*)c(=O)c5cc4c3=O)cc2)cc1 (repeat unit) | 0.0682 | 2.73 | 7.52 | 0.0995 | 0.591 |
| *c1ccc(Oc2ccc(C(c3ccccc3)(c3ccccc3)c3ccc(Oc4ccc(*)cc4)cc3)cc2)cc1 (repeat unit) | 0.14 | 9.57 |  | 0.47 | 2.26 |
| *c1ccc(Oc2ccc(C3(c4ccc(Oc5ccc(N6C(=O)c7ccc(C(c8ccc9c(c8)C(=O)N(*)C9=O)(C(F)(F)F)C(F)(F)F)cc7C6=O)cc5C(F)(F)F)cc4)c4ccccc4-c4ccccc43)cc2)c(C(F)(F)F)c1 (repeat unit) | 2.43 | 61.8 | 151 | 5.2 | 20 |
| *c1ccc(Oc2ccc(N3C(=O)c4cc(Oc5ccc(C(C)(C)C)cc5)c(-c5cc6c(cc5Oc5ccc(C(C)(C)C)cc5)C(=O)N(*)C6=O)cc4C3=O)cc2)cc1 (repeat unit) | 3.16 | 85.6 |  | 2.95 | 11.3 |
| *c1ccc(Oc2ccc(N3C(=O)c4cc(Oc5ccccc5)c(-c5cc6c(cc5Oc5ccccc5)C(=O)N(*)C6=O)cc4C3=O)cc2)cc1 (repeat unit) | 0.85 | 30.1 |  | 0.83 | 3.59 |
| *c1ccc(Oc2ccc(N3C(=O)c4ccc(-c5ccc6c(c5)C(=O)N(*)C6=O)cc4C3=O)cc2)cc1 (repeat unit) | 0.018 | 0.921 | 3.5 | 0.0215 | 0.174 |
| *c1ccc(Oc2ccc(N3C(=O)c4ccc([Si](C)(C)c5ccc6c(c5)C(=O)N(*)C6=O)cc4C3=O)cc2)cc1 (repeat unit) | 0.161 | 3.31 | 9.83 | 0.104 | 0.636 |
| *c1ccc(Sc2ccc(N3C(=O)c4ccc(C(c5ccc6c(c5)C(=O)N(*)C6=O)(C(F)(F)F)C(F)(F)F)cc4C3=O)cc2)cc1 (repeat unit) | 0.66 | 23.1 |  | 0.87 | 4.66 |
| *c1ccc(Sc2ccc(Sc3ccc(Sc4ccc(Sc5ccc(N6C(=O)c7ccc(C(c8ccc9c(c8)C(=O)N(*)C9=O)(C(F)(F)F)C(F)(F)F)cc7C6=O)cc5)cc4)cc3)cc2)cc1 (repeat unit) | 0.26 | 6.62 |  | 0.29 | 1.46 |
| *c1ccc2c(-c3c(O)ccc4cc(N5C(=O)c6ccc(C(=O)c7ccc8c(c7)C(=O)N(*)C8=O)cc6C5=O)ccc34)c(O)ccc2c1 (repeat unit) | 0.06 | 3.21 | 4.52 | 0.11 | 0.76 |
| *c1ccc2c(-c3c(OC(C)=O)ccc4cc(N5C(=O)c6ccc(C(c7ccc8c(c7)C(=O)N(*)C8=O)(C(F)(F)F)C(F)(F)F)cc6C5=O)ccc34)c(OC(C)=O)ccc2c1 (repeat unit) | 0.12 | 5.05 | 6.56 | 0.23 | 1.19 |
| *c1ccc2c(c1)-c1nc3ccc(-c4ccc5c(c4)nc4n5C(=O)c5cc(C(c6ccc7c(c6)C(=O)N(*)C7=O)(C(F)(F)F)C(F)(F)F)ccc5-4)cc3n1C2=O (repeat unit) | 8.1 | 294 | 376 | 13 | 65 |
| *c1ccc2c(c1)C1(CC2(C)C)CC(C)(C)c2ccc(N3C(=O)c4cc5c(cc4C3=O)C3(CC(C)(C)c4cc6c(cc43)C(=O)N(*)C6=O)CC5(C)C)cc21 (repeat unit) | 129 | 1520 | 624 | 65 | 208 |
| *c1ccc2c(c1)C1c3ccccc3C2c2ccc(N3C(=O)c4ccc(C(c5ccc6c(c5)C(=O)N(*)C6=O)(C(F)(F)F)C(F)(F)F)cc4C3=O)cc21 (repeat unit) | 3.65 | 131 | 212 | 5.32 | 28.1 |
| *c1ccc2c(c1)Cc1cc(N3C(=O)c4ccc(C(c5ccc6c(c5)C(=O)N(*)C6=O)(C(F)(F)F)C(F)(F)F)cc4C3=O)ccc1-2 (repeat unit) | 0.63 | 32.2 |  | 1.27 | 7.85 |

Results, then the compound that gave them:

| CH4 permeability [Barrer] | CO2 permeability [Barrer] | H2 permeability [Barrer] | N2 permeability [Barrer] | O2 permeability [Barrer] | Structure (SMILES) |
| --- | --- | --- | --- | --- | --- |
| 0.499 | 14.7 | 29.1 | 0.8 | 3.94 | *c1ccc(Oc2ccc(C(c3ccc(Oc4ccc(-n5c(=O)c6cc7c(=O)n(*)c(=O)c7cc6c5=O)cc4)cc3)(C(F)(F)F)C(F)(F)F)cc2)cc1 (repeat unit) |
| 0.18 | 6.14 | 17.3 | 0.275 | 1.6 | *c1ccc(Oc2ccc(C(c3ccc(Oc4ccc(N5C(=O)c6ccc(-c7ccc8c(c7)C(=O)N(*)C8=O)cc6C5=O)cc4)cc3)(C(F)(F)F)C(F)(F)F)cc2)cc1 (repeat unit) |
| 0.105 | 4.67 | 16.1 | 0.195 | 1.14 | *c1ccc(Oc2ccc(C(c3ccc(Oc4ccc(N5C(=O)c6ccc(C(=O)c7ccc8c(c7)C(=O)N(*)C8=O)cc6C5=O)cc4)cc3)(C(F)(F)F)C(F)(F)F)cc2)cc1 (repeat unit) |
| 0.189 | 8.04 | 24.6 | 0.37 | 2.44 | *c1ccc(Oc2ccc(C(c3ccc(Oc4ccc(N5C(=O)c6ccc(C(=O)c7ccc8c(c7)C(=O)N(*)C8=O)cc6C5=O)cc4C(F)(F)F)cc3)(C(F)(F)F)C(F)(F)F)cc2)c(C(F)(F)F)c1 (repeat unit) |
| 0.56 | 21.4 |  | 1.1 | 5.71 | *c1ccc(Oc2ccc(C3(c4ccc(Oc5ccc(N6C(=O)c7ccc(C(c8ccc9c(c8)C(=O)N(*)C9=O)(C(F)(F)F)C(F)(F)F)cc7C6=O)c(C)c5)cc4)OC(=O)c4ccccc43)cc2)cc1C (repeat unit) |
| 0.69 | 19.9 | 61.3 | 1.26 | 4.88 | *c1ccc(Oc2ccc(C3(c4ccc(Oc5ccc(N6C(=O)c7ccc(C(c8ccc9c(c8)C(=O)N(*)C9=O)(C(F)(F)F)C(F)(F)F)cc7C6=O)cc5)cc4)c4ccccc4-c4ccccc43)cc2)cc1 (repeat unit) |
| 0.0109 | 0.625 | 4.19 | 0.0178 | 0.18 | *c1ccc(Oc2ccc(N3C(=O)c4ccc(C(=O)c5ccc6c(c5)C(=O)N(*)C6=O)cc4C3=O)cc2)cc1 (repeat unit) |
| 0.0305 | 1.25 |  | 0.0392 | 0.256 | *c1ccc(Oc2ccc(Oc3ccc(Oc4ccc(N5C(=O)c6ccc(-c7ccc8c(c7)C(=O)N(*)C8=O)cc6C5=O)cc4)cc3)cc2)cc1 (repeat unit) |
| 0.0397 | 1.85 |  | 0.0544 | 0.368 | *c1ccc(Oc2ccc(S(=O)(=O)c3ccc(Oc4ccc(N5C(=O)c6ccc(-c7ccc8c(c7)C(=O)N(*)C8=O)cc6C5=O)cc4)cc3)cc2)cc1 (repeat unit) |
| 0.22 | 15 | 21.1 | 0.4 | 2.56 | *c1ccc(Oc2ccc3ccccc3c2-c2c(Oc3ccc(N4C(=O)c5ccc(C(c6ccc7c(c6)C(=O)N(*)C7=O)(C(F)(F)F)C(F)(F)F)cc5C4=O)cc3)ccc3ccccc23)cc1 (repeat unit) |
| 0.125 | 6.11 | 23.7 | 0.259 | 1.57 | *c1ccc(Oc2cccc(N3C(=O)c4ccc(C(c5ccc6c(c5)C(=O)N(*)C6=O)(C(F)(F)F)C(F)(F)F)cc4C3=O)c2)cc1 (repeat unit) |
| 0.28 | 8.92 |  | 0.34 | 1.77 | *c1ccc(Sc2ccc(Sc3ccc(N4C(=O)c5ccc(C(c6ccc7c(c6)C(=O)N(*)C7=O)(C(F)(F)F)C(F)(F)F)cc5C4=O)cc3)cc2)cc1 (repeat unit) |
